Experimental data published in patent publication US20150018384A1, “TREATMENT FOR HIGH CHOLESTEROL” (FibroGen, Inc., priority 2012, published 2015).

Test system: Cholesterol Biosynthesis Genes in the Mouse Liver
Assay: Microarray expression of cholesterol biosynthesis genes in mouse liver
Assay type: in vivo
Conditions: 10 mg/kg oral
Experimental: A number of PHI compounds were evaluated for their effect on the expression of cholesterol biosynthesis genes in mouse liver. […] Liver tissue was harvested and stored in RNALater (Life Technologies). Total RNA was isolated with Trizol (Life Technologies) and purified with RNEasy96 (Qiagen) according to the manufacturers' protocols. RNA concentration was measured by NanoDrop (Thermo), and quality was assessed by Bioanalyzer (Agilent).
Biotinylated microarray probe was prepared using the 3′IVT Express kit (Affymetrix) and hybridized to mouse 430A 2.0 arrays as recommended in the manufacturer's protocol. Arrays were stained, washed, and scanned using Affymetrix equipment and software. Three arrays were run for each treatment and time point, each representing the liver sample from one individual animal.
Animals were sacrificed 4 h or 8 h later. Each compound was tested in a separate animal study with separate controls. Liver tissue was harvested and stored in RNALater (Life Technologies). Total RNA was isolated with Trizol (Life Technologies) and purified with RNEasy96 (Qiagen) according to the manufacturers' protocols. RNA concentration was measured by NanoDrop (Thermo), and quality was assessed by Bioanalyzer (Agilent).
For microarray analysis, RNA from animals in each treatment group was pooled in pairs (n=3 pairs for 4 h vehicle, n=2 pairs for all other treatment groups, for a total of 13 arrays per compound study). This approach was used to improve the signal-to-noise ratio on microarrays. Biotinylated probe was prepared using the One-Cycle cDNA synthesis kit (Affymetrix) and hybridized to mouse 430A 2.0 arrays as recommended in the manufacturer's protocol. Arrays were stained, washed, and scanned using Affymetrix equipment and software.
Array quality was assessed with GeneChip Operating System and/or Command Console software (Affymetrix). CEL files were uploaded to GeneSpring 7.3.1 (Agilent) using GC-RMA baseline correction. Principal Components Analysis was used to identify and reject outlier arrays. Data are reported as fold-change compared to timepoint-matched vehicle controls from the same study. Values less than 1.0 indicate a reduction of RNA in the treated animal liver tissue.

Row | Compound | 3-hydroxy-3-methylglutaryl-Coenzyme A reductase (Hmgcr) RNA expression (4 h) [fold-change] | 3-hydroxy-3-methylglutaryl-Coenzyme A synthase 1 (Hmgcs1) RNA expression (4 h) [fold-change] | 7-dehydrocholesterol reductase (Dhcr7) RNA expression (4 h) [fold-change] | NAD(P) dependent steroid dehydrogenase-like (Nsdhl) RNA expression (4 h) [fold-change] | acetyl-Coenzyme A acetyltransferase 2 (Acat2) RNA expression (4 h) [fold-change] | cytochrome P450, family 51 (Cyp51) RNA expression (4 h) [fold-change] | farnesyl diphosphate farnesyl transferase 1 (Fdft1) RNA expression (4 h) [fold-change] | farnesyl diphosphate synthetase (Fdps) RNA expression (4 h) [fold-change] | isopentenyl-diphosphate delta isomerase (Idi1) RNA expression (4 h) [fold-change] | lanosterol synthase (Lss) RNA expression (4 h) [fold-change] | mevalonate (diphospho) decarboxylase (Mvd) RNA expression (4 h) [fold-change] | mevalonate kinase (Mvk) RNA expression (4 h) [fold-change] | phosphomevalonate kinase (Pmvk) RNA expression (4 h) [fold-change] | squalene epoxidase (Sqle) RNA expression (4 h) [fold-change] | sterol-C4-methyl oxidase-like (Sc4mol) RNA expression (4 h) [fold-change] | sterol-C5-desaturase (fungal ERG3, delta-5-desaturase) homolog (S. cerevisae) (Sc5d) RNA expression (4 h) [fold-change] | 3-hydroxy-3-methylglutaryl-Coenzyme A reductase (Hmgcr) RNA expression (8 h) [fold-change] | 3-hydroxy-3-methylglutaryl-Coenzyme A synthase 1 (Hmgcs1) RNA expression (8 h) [fold-change] | 7-dehydrocholesterol reductase (Dhcr7) RNA expression (8 h) [fold-change] | NAD(P) dependent steroid dehydrogenase-like (Nsdhl) RNA expression (8 h) [fold-change] | further results
1 | N#Cc1nc(C(=O)NCC(=O)O)c(O)c2ccn(Cc3ccc4ccccc4c3)c12 [Compound J, [(7-Cyano-4-hydroxy-1-naphthalen-2-ylmethyl-1H-pyrrolo[2,3-c]pyridine-5-carbonyl)-amino]-acetic acid] | 0.38 | 0.28 | 0.52 | 0.42 | 0.58 | 0.38 | 0.70 | 0.38 | 0.25 | 0.77 | 0.72 | 0.79 | 0.59 | 0.26 | 0.27 | 1.22 | 0.43 | 0.92 | 0.94 | 1.03 | acetyl-Coenzyme A acetyltransferase 2 (Acat2) RNA expression (8 h): 0.91 fold-change; cytochrome P450, family 51 (Cyp51) RNA expression (8 h): 0.80 fold-change; farnesyl diphosphate farnesyl transferase 1 (Fdft1) RNA expression (8 h): 0.66 fold-change; farnesyl diphosphate synthetase (Fdps) RNA expression (8 h): 0.66 fold-change; isopentenyl-diphosphate delta isomerase (Idi1) RNA expression (8 h): 0.70 fold-change; lanosterol synthase (Lss) RNA expression (8 h): 0.76 fold-change; mevalonate (diphospho) decarboxylase (Mvd) RNA expression (8 h): 0.83 fold-change; mevalonate kinase (Mvk) RNA expression (8 h): 0.79 fold-change; phosphomevalonate kinase (Pmvk) RNA expression (8 h): 0.84 fold-change; squalene epoxidase (Sqle) RNA expression (8 h): 1.03 fold-change; sterol-C4-methyl oxidase-like (Sc4mol) RNA expression (8 h): 0.52 fold-change; sterol-C5-desaturase (fungal ERG3, delta-5-desaturase) homolog (S. cerevisae) (Sc5d) RNA expression (8 h): 0.81 fold-change
2 | Cc1cccc(C)c1Oc1ccc2c(O)c(C(=O)NCC(=O)O)nc(C#N)c2c1 [Compound I, {[1-Cyano-7-(2,6-dimethyl-phenoxy)-4-hydroxy-isoquinoline-3-carbonyl]-amino}-acetic acid] | 0.41 | 1.43 | 1.41 | 1.66 | 1.21 | 0.81 | 0.85 | 1.45 | 1.40 | 0.74 | 0.45 | 1.02 | 1.25 | 1.36 | 0.88 | 0.87 | 0.17 | 0.19 | 0.30 | 0.21 | acetyl-Coenzyme A acetyltransferase 2 (Acat2) RNA expression (8 h): 0.43 fold-change; cytochrome P450, family 51 (Cyp51) RNA expression (8 h): 0.12 fold-change; farnesyl diphosphate farnesyl transferase 1 (Fdft1) RNA expression (8 h): 0.32 fold-change; farnesyl diphosphate synthetase (Fdps) RNA expression (8 h): 0.16 fold-change; isopentenyl-diphosphate delta isomerase (Idi1) RNA expression (8 h): 0.12 fold-change; lanosterol synthase (Lss) RNA expression (8 h): 0.28 fold-change; mevalonate (diphospho) decarboxylase (Mvd) RNA expression (8 h): 0.19 fold-change; mevalonate kinase (Mvk) RNA expression (8 h): 0.37 fold-change; phosphomevalonate kinase (Pmvk) RNA expression (8 h): 0.41 fold-change; squalene epoxidase (Sqle) RNA expression (8 h): 0.16 fold-change; sterol-C4-methyl oxidase-like (Sc4mol) RNA expression (8 h): 0.11 fold-change; sterol-C5-desaturase (fungal ERG3, delta-5-desaturase) homolog (S. cerevisae) (Sc5d) RNA expression (8 h): 0.54 fold-change
3 | COc1ccc(Cn2cc(Br)c3c(O)c(C(=O)NCC(=O)O)nc(C#N)c32)cc1 [Compound K, {[3-Bromo-7-cyano-4-hydroxy-1-(4-methoxy-benzyl)-1H-pyrrolo[2,3-c]pyridine-5-carbonyl]-amino}-acetic acid] | 0.40 | 0.74 | 1.13 | 1.05 | 0.94 | 0.81 | 0.78 | 1.01 | 0.88 | 0.88 | 0.68 | 0.92 | 0.88 | 1.46 | 0.65 | 0.92 | 0.11 | 0.30 | 0.61 | 0.56 | acetyl-Coenzyme A acetyltransferase 2 (Acat2) RNA expression (8 h): 0.63 fold-change; cytochrome P450, family 51 (Cyp51) RNA expression (8 h): 0.32 fold-change; farnesyl diphosphate farnesyl transferase 1 (Fdft1) RNA expression (8 h): 0.39 fold-change; farnesyl diphosphate synthetase (Fdps) RNA expression (8 h): 0.37 fold-change; isopentenyl-diphosphate delta isomerase (Idi1) RNA expression (8 h): 0.34 fold-change; lanosterol synthase (Lss) RNA expression (8 h): 0.38 fold-change; mevalonate (diphospho) decarboxylase (Mvd) RNA expression (8 h): 0.20 fold-change; mevalonate kinase (Mvk) RNA expression (8 h): 0.49 fold-change; phosphomevalonate kinase (Pmvk) RNA expression (8 h): 0.96 fold-change; squalene epoxidase (Sqle) RNA expression (8 h): 0.39 fold-change; sterol-C4-methyl oxidase-like (Sc4mol) RNA expression (8 h): 0.21 fold-change; sterol-C5-desaturase (fungal ERG3, delta-5-desaturase) homolog (S. cerevisae) (Sc5d) RNA expression (8 h): 0.24 fold-change
